Measured values taken from ChEMBL document CHEMBL5729456, “Compounds useful in HIV therapy” (2022).

Experiment: Jurkat Latency Reversal Assay: Jurkat HIV-luciferase clones were maintained in RPMI medium 1640 (Gibco by Life Technologies) containing 10% (vol/vol) fetal bovine serum (SAFC/Sigma-Aldrich) and 25 units/mL penicillin, 25 units/mL streptomycin (Gibco by Life Technologies), and were split 1:4 every 3 to 4 days to maintain a cell density of ˜0.3 to 1 million cells/mL. The Jurkat clones were maintained with the addition of 500 nM EFV in the medium. Three Jurkat cell clones (C16, I15, and N6), each harboring one or two integrated HIV proviruses expressing the luciferase reporter gene, were added at equal amounts for a total of 5,000 cells per well to 384-well plates containing compound titrations. Dose-response testing was performed on compounds dissolved in dimethyl sulfoxide (DMSO, Fisher Scientific, Merelbeke, Belgium) dispensed in duplicate serial 3-fold, 14-point titrations using a D300e Digital Droplet Dispenser (Hewlett-Packard) to give final assay concentrations of 10 μM to 2.1 pM in 50 μL of medium at 0.5% DMSO (vol/vol) final concentration. Cells and compound were incubated at 37° C. for 48 hours, unless otherwise indicated, followed by the addition of 20 μL of Steady-Glo® Luciferase (Promega). Luminescence resulting from the induction of the virally expressed luciferase was measured using an EnVision 2102 Multilabel Plate Reader (Perkin Elmer). Dose-response relationships were analyzed with GraphPad PRISM 6 using a four-parameter logistic regression model to calculate the concentration of compound that gives half-maximal response (EC50) and the maximal percent activation compared to the vehicle control.

Q: For `CN[C@@H](C)C(=O)N[C@H]1CCS[C@H]2CC(C)(C)[C@@H](C(=O)N[C@H](C(=O)N[C@H]3CC[C@H](NC(=O)[C@@H](NC(=O)[C@H]4N5C(=O)[C@@H](NC(=O)[C@H](C)NC)CCS[C@H]5CC4(C)C)c4ccccc4)CC3)c3ccccc3)N2C1=O`, which EC50 is on record?
A: The EC50 was 53.7 nM.

Q: With `CN[C@@H](C)C(=O)N[C@H]1CCS[C@H]2CC(C)(C)[C@@H](C(=O)N[C@H]3c4ccccc4C[C@H]3C(=O)N[C@H]3CC[C@H](NC(=O)[C@@H]4Cc5ccccc5[C@@H]4NC(=O)[C@H]4N5C(=O)[C@@H](NC(=O)[C@H](C)NC)CCS[C@H]5CC4(C)C)CC3)N2C1=O` as the compound, how does the EC50 read?
A: Its EC50 is 429 nM.

Q: For `CN[C@@H](C)C(=S)N[C@H]1CCS[C@H]2CC(C)(C)[C@@H](C(=O)N[C@H]3c4ccccc4CC[C@H]3C(=O)N[C@H]3CC[C@H](NC(=O)[C@@H]4CCc5ccccc5[C@@H]4NC(=O)[C@H]4N5C(=O)[C@@H](NC(=S)[C@H](C)NC)CCS[C@H]5CC4(C)C)CC3)N2C1=O`, which EC50 is on record?
A: The EC50 was 6.8 nM.

Q: With `CN[C@@H](C)C(=O)N[C@H]1CCS[C@H]2CC(C)(C)[C@@H](C(=O)N[C@H]3c4ccccc4CC[C@H]3C(=O)N[C@H]3CC[C@H](NC(=O)[C@@H]4CCc5ccccc5[C@@H]4NC(=O)[C@H]4N5C(=O)[C@@H](NC(=O)[C@H](C)NC)CCS[C@H]5CC4(C)C)CC3)N2C1=O` as the compound, how does the EC50 read?
A: The EC50 was 324 nM.

Q: Which EC50 does the source give for `CN[C@@H](C)C(=S)N[C@H]1CCS[C@H]2CC(C)(C)[C@@H](C(=O)N[C@H]3c4ccccc4C[C@H]3C(=O)N[C@H]3CC[C@H](NC(=O)[C@@H]4Cc5ccccc5[C@@H]4NC(=O)[C@H]4N5C(=O)[C@@H](NC(=S)[C@H](C)NC)CCS[C@H]5CC4(C)C)CC3)N2C1=O` here?
A: The EC50 was 32 nM.

Q: With `CN[C@@H](C)C(=S)N[C@H]1CCS[C@H]2CC(C)(C)[C@@H](C(=O)N[C@H](C(=O)N[C@H]3CC[C@H](NC(=O)[C@@H](NC(=O)[C@H]4N5C(=O)[C@@H](NC(=S)[C@H](C)NC)CCS[C@H]5CC4(C)C)c4ccccc4)CC3)c3ccccc3)N2C1=O` as the compound, how does the EC50 read?
A: The EC50 was 89.5 nM.
